From patent US11279733B2, “Peptide antibiotics” (priority 2017, dated 2022)
≈ marks a conversion by molar mass, not a printed value. Where two headings read alike, the source gives them in different places. Positions of bridges follow the written chain, without caps; N, C: chain ends. Non-standard residues stand in square brackets, D forms with d. Residues, ends and D or L forms follow the SMILES beside them. *: point of attachment. Decanoyl(3R-OH) = CCCCCCC[C@@H](O)CC(=O)*; dPhe(4-F) = N[C@H](Cc1ccc(F)cc1)C(=O)O; 3Pal = N[C@@H](Cc1cccnc1)C(=O)O; dDab = NCC[C@@H](N)C(=O)O; Dab = NCC[C@H](N)C(=O)O

Experiments:
[1] = in vitro; settings: human
How it was run: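 Cells (4000/well, pre-attached 24 h) then received 5 μM resazurin for 2 h, with fluorescence measured at ex 560/em 590.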

[2] = system: E. coli ATCC 25922; settings: ATCC 25922
How it was run: (§1)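 Mid-log cultures grown in Mueller Hinton broth at 37° C were tested by 2-fold broth microdilution at 5×10^5 CFU/mL final. Compounds were dissolved in water and tested over a final range of 32 to 0.015 μg/mL.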

[3] = system: K. pneumoniae GN_106, PmxR; settings: GN 106, PmxR
How it was run: as §1

[4] = system: P. aeruginosa ATCC 27853; settings: ATCC 27853
How it was run: as §1

[5] = system: P. aeruginosa GN_105, PmxR; settings: GN 105, PmxR
How it was run: as §1

[6] = system: K. pneumoniae ATCC 700603, MDR; settings: ATCC 700603
How it was run: as §1

[7] = system: K. pneumoniae GN_102 PmxR; settings: GN 102 PmxR
How it was run: as §1

[8] = system: S. aureus ATCC 25923, MSSA; settings: ATCC 25923
How it was run: as §1

[9] = system: K. pneumoniae ATCC BAA-2146, NDM-1 pos; settings: ATCC BAA-2146
How it was run: as §1

[10] = system: K. pneumoniae ATCC 13883; settings: ATCC 13883
How it was run: as §1

[11] = system: A. baumannii ATCC 19606; settings: ATCC 19606
How it was run: as §1

[12] = system: A. baumannii GN_093 PmxR; settings: GN 093 PmxR
How it was run: as §1

[13] = system: P. aeruginosa GN_043, PmxR
How it was run: as §1

Row | SMILES | CC50 at 24 h [1] [µM] | MIC E. coli ATCC 25922 [2] [µg/mL] | MIC K. pneumoniae GN_106, PmxR [3] [µg/mL] | MIC P. aeruginosa ATCC 27853 [4] [µg/mL] | MIC P. aeruginosa GN_105, PmxR [5] [µg/mL] | MIC K. pneumoniae ATCC 700603, MDR [6] [µg/mL] | MIC K. pneumoniae GN_102 PmxR [7] [µg/mL] | MIC S. aureus ATCC 25923, MSSA [8] [µg/mL] | MIC K. pneumoniae ATCC BAA-2146, NDM-1 pos [9] [µg/mL] | MIC K. pneumoniae ATCC 13883 [10] [µg/mL] | MIC A. baumannii ATCC 19606 [11] [µg/mL] | MIC A. baumannii GN_093 PmxR [12] [µg/mL] | MIC P. aeruginosa GN_043, PmxR ([13]; polymyxin-resistant) [µg/mL] | MIC P. aeruginosa GN_043, PmxR ([13]; P. aeruginosa GN_043, PmxR) [µg/mL]
1 | CCCCCCC[C@@H](O)CC(=O)N[C@H](CCCNC(=N)N)C(=O)N[C@H]1CCNC(=O)[C@H](Cc2c[nH]c3ccccc23)NC(=O)[C@H](CCN)NC(=O)[C@H](CCN)NC(=O)[C@H](CC(C)C)NC(=O)[C@@H](Cc2ccccc2)NC(=O)[C@H](CCN)NC1=O [compound 8884, nC10-3(R)OH-D-Arg-cyc[L-Dab-L-Dab-D-Phe-L-Leu-L-Dab-L-Dab-L-Trp]] ({Decanoyl(3R-OH)}-[dR][Dab][Dab][dF]L[Dab][Dab]W; lactam 2-C) | 73 | 4 (≈ 3.41 µM) | 16 (≈ 13.6 µM) | 4 (≈ 3.41 µM) | 16 (≈ 13.6 µM) | 4 (≈ 3.41 µM) | 32 (≈ 27.3 µM) | 16 (≈ 13.6 µM) | 8 (≈ 6.82 µM) | 16 (≈ 13.6 µM) | 32 (≈ 27.3 µM) | 32 (≈ 27.3 µM) | 4 (≈ 3.41 µM) | –
2 | CCCCCCC[C@@H](O)CC(=O)N[C@H](CCN)C(=O)N[C@H]1CCNC(=O)[C@H](Cc2c[nH]c3ccccc23)NC(=O)[C@H](CCN)NC(=O)[C@H](CCN)NC(=O)[C@H](CC(C)C)NC(=O)[C@@H](Cc2ccc(F)cc2)NC(=O)[C@H](CCN)NC1=O [compound 8119, 3(R)OH-nC9CO-D-Dab-cyc[L-Dab-L-Dab-L-Dab-D-Phe(4-F)-L-Leu-L-Dab-L-Dab-L-Trp]] ({Decanoyl(3R-OH)}-[dDab][Dab][Dab][dPhe(4-F)]L[Dab][Dab]W; lactam 2-C) | 64 | 8 (≈ 7.05 µM) | 4 (≈ 3.52 µM) | 4 (≈ 3.52 µM) | 2 (≈ 1.76 µM) | 8 (≈ 7.05 µM) | 4 (≈ 3.52 µM) | 16 (≈ 14.1 µM) | 4 (≈ 3.52 µM) | 4 (≈ 3.52 µM) | 8 (≈ 7.05 µM) | 8 (≈ 7.05 µM) | 2 (≈ 1.76 µM) | –
3 | CCCCCCC[C@@H](O)CC(=O)N[C@H](CCN)C(=O)N[C@H]1CCNC(=O)[C@H](CC(C)C)NC(=O)[C@H](CCN)NC(=O)[C@H](CCN)NC(=O)[C@H](CC(C)C)NC(=O)[C@H](Cc2ccccc2)NC(=O)[C@H](CCN)NC1=O [compound 5002, 3(R)OH-nC9CO-D-Dab-cyc[L-Dab-L-Dab-L-Phe-L-Leu-L-Dab-L-Dab-L-Leu]] ({Decanoyl(3R-OH)}-[dDab][Dab][Dab]FL[Dab][Dab]L; lactam 2-C) | > 300 | 32 (≈ 30.6 µM) | >32 | 4 (≈ 3.83 µM) | >32 | 16 (≈ 15.3 µM) | 32 (≈ 30.6 µM) | 32 (≈ 30.6 µM) | 16 (≈ 15.3 µM) | >32 | >32 | >32 | – | 8 (≈ 7.66 µM)
4 | CCCCCCC[C@@H](O)CC(=O)N[C@H](CCN)C(=O)N[C@H]1CCNC(=O)[C@H](Cc2cccnc2)NC(=O)[C@H](CCN)NC(=O)[C@H](CCN)NC(=O)[C@H](CC(C)C)NC(=O)[C@@H](Cc2ccccc2)NC(=O)[C@H](CCN)NC1=O [compound 8907, 3(R)OH-nC9CO-D-Dab-cyc[L-Dab-L-Dab-D-Phe-L-Leu-L-Dab-L-Dab-L-Ala(3py)]] ({Decanoyl(3R-OH)}-[dDab][Dab][Dab][dF]L[Dab][Dab][3Pal]; lactam 2-C) | > 300 | 4 (≈ 3.71 µM) | 8 (≈ 7.41 µM) | 1 (≈ 0.926 µM) | 1 (≈ 0.926 µM) | 4 (≈ 3.71 µM) | 32 (≈ 29.6 µM) | >32 | 8 (≈ 7.41 µM) | 4 (≈ 3.71 µM) | >32 | >32 | 1 (≈ 0.926 µM) | –
